The text below walks through data of US20250346602A1, “LACTAM SUBSTITUTED IMIDAZOPYRIDAZINE IL-17A MODULATORS AND USES THEREOF” (DICE ALPHA, INC., priority 2022, published 2025).

Some results are limits rather than exact numbers.

By IC50 is commonly meant the concentration needed to halve the response being measured.

The assay deals with T1, IL-17A/A (Homo sapiens, UniProt Q16552).
T1 construct: purchased Genscript Z03228
T1 sequence (Q16552 24-155): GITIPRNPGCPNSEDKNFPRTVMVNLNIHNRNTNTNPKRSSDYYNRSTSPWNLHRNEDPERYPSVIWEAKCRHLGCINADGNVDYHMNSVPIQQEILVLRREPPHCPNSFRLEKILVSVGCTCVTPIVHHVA
The assay can be described thus: IL-17A/A HEK-Blue cell assay. The following applies: HEK-Blue IL-17A reporter cell line (HEK 293), IL-17A/A stimulation, 20 hours incubation, SEAP read at A630. The class given is cell-based. The method, boiled down: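 HEK293 reporter cells expressing IL-17RA, IL-17RC and Act1 were given titrated compound (top final 10, 1 or 0.3 uM; 0.1% DMSO) right before IL-17A/A and incubated 20 hours. NFκB-driven SEAP in the media was read at A630 with Quanti-Blue, and IC50 came from a 4-parameter nonlinear fit.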
On to `O=C(N[C@H](c1cn2nc(CC3C[C@@H](C(F)(F)F)CNC3=O)ccc2n1)C1CCC(F)(F)CC1)c1conc1C(F)(F)C1CC1` (stereo partly drawn) [Compound 125, 3-(cyclopropyldifluoromethyl)-N-((1S)-(4,4-difluorocyclohexyl)(6-(((5R)-2-oxo-5-(trifluoromethyl)piperidin-3-yl)methyl)imidazo[1,2-b]pyridazin-2-yl)methyl)isoxazole-4-carboxamide], for which the IC50 was 0.1 to 1 µM.
On to `CCCn1nccc1C(=O)N[C@H](c1cn2nc(CC3C[C@@H](C(F)(F)F)CNC3=O)ccc2n1)C1CCC(F)(F)CC1` (stereo partly drawn) [Compound 128, N-((1S)-(4,4-difluorocyclohexyl)(6-(((5R)-2-oxo-5-(trifluoromethyl)piperidin-3-yl)methyl)imidazo[1,2-b]pyridazin-2-yl)methyl)-1-propyl-1H-pyrazole-5-carboxamide], for which the IC50 was 0.1 to 1 µM.
With `Cn1nc(C(F)F)cc1C(=O)N[C@H](c1cn2nc(CC3C[C@@H](C(F)(F)F)CNC3=O)ccc2n1)C1CCC(F)(F)CC1` (stereo partly drawn) [Compound 129, N-((1S)-(4,4-difluorocyclohexyl)(6-(((5R)-2-oxo-5-(trifluoromethyl)piperidin-3-yl)methyl)imidazo[1,2-b]pyridazin-2-yl)methyl)-3-(difluoromethyl)-1-methyl-1H-pyrazole-5-carboxamide], the IC50 was > 1 µM.
The result for `O=C(N[C@H](c1cn2nc(CC3C[C@@H](C(F)(F)F)CNC3=O)ccc2n1)C1CCC(F)(F)CC1)c1cnsn1` (stereo partly drawn) [Compound 132, N-((1S)-(4,4-difluorocyclohexyl)(6-(((5R)-2-oxo-5-(trifluoromethyl)piperidin-3-yl)methyl)imidazo[1,2-b]pyridazin-2-yl)methyl)-1,2,5-thiadiazole-3-carboxamide] reads > 1 µM.
The result for `Cn1c(C#N)ccc1C(=O)N[C@H](c1cn2nc(CC3C[C@@H](C(F)(F)F)CNC3=O)ccc2n1)C1CCC(F)(F)CC1` (stereo partly drawn) [Compound 133, 5-cyano-N-((1S)-(4,4-difluorocyclohexyl)(6-(((5R)-2-oxo-5-(trifluoromethyl)piperidin-3-yl)methyl)imidazo[1,2-b]pyridazin-2-yl)methyl)-1-methyl-1H-pyrrole-2-carboxamide] reads 0.1 to 1 µM; that for `N#Cc1cc(C(=O)N[C@H](c2cn3nc(CC4C[C@@H](C(F)(F)F)CNC4=O)ccc3n2)C2CCC(F)(F)CC2)cs1` (stereo partly drawn) [Compound 134, 5-cyano-N-((1S)-(4,4-difluorocyclohexyl)(6-(((5R)-2-oxo-5-(trifluoromethyl)piperidin-3-yl)methyl)imidazo[1,2-b]pyridazin-2-yl)methyl)thiophene-3-carboxamide], 0.1 to 1 µM.
Turning to `Cc1n[nH]cc1C(=O)N[C@H](c1cn2nc(CC3C[C@@H](C(F)(F)F)CNC3=O)ccc2n1)C1CCC(F)(F)CC1` (stereo partly drawn) [Compound 135, N-((1S)-(4,4-difluorocyclohexyl)(6-(((5R)-2-oxo-5-(trifluoromethyl)piperidin-3-yl)methyl)imidazo[1,2-b]pyridazin-2-yl)methyl)-3-methyl-1H-pyrazole-4-carboxamide], the IC50 was > 1 µM.
With `O=C(N[C@H](c1cn2nc(CC3C[C@@H](C(F)(F)F)CNC3=O)ccc2n1)C1CCC(F)(F)CC1)c1conc1C1CC1` (stereo partly drawn) [Compound 136, 3-cyclopropyl-N-((1S)-(4,4-difluorocyclohexyl)(6-(((5R)-2-oxo-5-(trifluoromethyl)piperidin-3-yl)methyl)imidazo[1,2-b]pyridazin-2-yl)methyl)isoxazole-4-carboxamide], the 50% inhibitory concentration (IC50) was 0.1 to 1 µM.
With `O=C(N[C@H](c1cn2nc(CC3C[C@@H](C(F)(F)F)CNC3=O)ccc2n1)C1CCC(F)(F)CC1)c1ccnn1C1CC1` (stereo partly drawn) [Compound 137, 1-cyclopropyl-N-((1S)-(4,4-difluorocyclohexyl)(6-(((5R)-2-oxo-5-(trifluoromethyl)piperidin-3-yl)methyl)imidazo[1,2-b]pyridazin-2-yl)methyl)-1H-pyrazole-5-carboxamide], the IC50 was 0.1 to 1 µM.
Regarding `O=C(N[C@H](c1cn2nc(CC3C[C@@H](C(F)(F)F)CNC3=O)ccc2n1)C1CCC(F)(F)CC1)c1conc1C1(C(F)(F)F)CC1` (stereo partly drawn) [Compound 138, N-((1S)-(4,4-difluorocyclohexyl)(6-(((5R)-2-oxo-5-(trifluoromethyl)piperidin-3-yl)methyl)imidazo[1,2-b]pyridazin-2-yl)methyl)-3-(1-(trifluoromethyl)cyclopropyl)isoxazole-4-carboxamide], the IC50 lay within 0.1 to 1 µM.
To `O=C1NC[C@H](C(F)(F)F)CC1Cc1ccc2nc([C@@H](NC(=O)C3(F)CC3)C3CCC(F)(F)CC3)cn2n1` (stereo partly drawn) [Compound 139, N-((1S)-(4,4-difluorocyclohexyl)(6-(((5R)-2-oxo-5-(trifluoromethyl)piperidin-3-yl)methyl)imidazo[1,2-b]pyridazin-2-yl)methyl)-1-fluorocyclopropane-1-carboxamide] belongs > 1 µM; to `O=C(N[C@H](c1cn2nc(CC3C[C@@H](C(F)(F)F)CNC3=O)ccc2n1)C1CCC(F)(F)CC1)c1conc1C12CC(F)(C1)C2` (stereo partly drawn) [Compound 140, N-((1S)-(4,4-difluorocyclohexyl)(6-(((5R)-2-oxo-5-(trifluoromethyl)piperidin-3-yl)methyl)imidazo[1,2-b]pyridazin-2-yl)methyl)-3-(3-fluorobicyclo[1.1.1]pentan-1-yl)isoxazole-4-carboxamide], 0.1 to 1 µM; to `CCc1nonc1C(=O)N[C@H](c1cn2nc(CC3C[C@@H](C(F)(F)F)CNC3=O)ccc2n1)[C@H]1CC[C@H](C)CC1` (stereo partly drawn) [Compound 141, 4-Ethyl-N-((1S)-((1R.4S)-4-methylcyclohexyl)(6-(((5R)-2-oxo-5-(trifluoromethyl)piperidin-3-yl)methyl)imidazo[1,2-b]pyridazin-2-yl)methyl)-1,2,5-oxadiazole-3-carboxamide], < 0.1 µM.
Take `CCn1nccc1C(=O)N[C@H](c1cn2nc(CC3C[C@@H](C(F)(F)F)CNC3=O)ccc2n1)[C@H]1CCCC(F)(F)C1` (stereo partly drawn) [Compound 142, N-((1S)—((S)-3,3-difluorocyclohexyl)(6-(((5R)-2-oxo-5-(trifluoromethyl)piperidin-3-yl)methyl)imidazo[1,2-b]pyridazin-2-yl)methyl)-1-ethyl-1H-pyrazole-5-carboxamide]: the IC50 was < 0.1 µM.
In the case of `CCn1nccc1C(=O)N[C@H](c1cn2nc(CC3C[C@@H](C(F)(F)F)CNC3=O)ccc2n1)[C@@H]1CCCC(F)(F)C1` (stereo partly drawn) [Compound 143, N-((1S)—((R)-3,3-difluorocyclohexyl)(6-(((5R)-2-oxo-5-(trifluoromethyl)piperidin-3-yl)methyl)imidazo[1,2-b]pyridazin-2-yl)methyl)-1-ethyl-1H-pyrazole-5-carboxamide], the IC50 is < 0.1 µM.
To `O=C(N[C@H](c1cn2nc(CC3C[C@@H](C(F)(F)F)CNC3=O)ccc2n1)[C@H]1CCCC(F)(F)C1)c1nonc1C1CC1` (stereo partly drawn) [Compound 144, 4-cyclopropyl-N—((S)-((S)-3,3-difluorocyclohexyl)(6-(((5R)-2-oxo-5-(trifluoromethyl)piperidin-3-yl)methyl)imidazo[1,2-b]pyridazin-2-yl)methyl)-1,2,5-oxadiazole-3-carboxamide] belongs < 0.1 µM; to `O=C(N[C@H](c1cn2nc(CC3C[C@@H](C(F)(F)F)CNC3=O)ccc2n1)[C@@H]1CCCC(F)(F)C1)c1nonc1C1CC1` (stereo partly drawn) [Compound 145, 4-cyclopropyl-N—((S)-((R)-3,3-difluorocyclohexyl)(6-(((5R)-2-oxo-5-(trifluoromethyl)piperidin-3-yl)methyl)imidazo[1,2-b]pyridazin-2-yl)methyl)-1,2,5-oxadiazole-3-carboxamide], < 0.1 µM.
The result for `O=C(N[C@H](c1cn2nc(CC3C[C@@H](C(F)(F)F)CNC3=O)ccc2n1)[C@H]1CCCC(F)(F)C1)c1conc1C1CC1` (stereo partly drawn) [Compound 146, 3-cyclopropyl-N-((1S)—((S)-3,3-difluorocyclohexyl)(6-(((5R)-2-oxo-5-(trifluoromethyl)piperidin-3-yl)methyl)imidazo[1,2-b]pyridazin-2-yl)methyl)isoxazole-4-carboxamide] reads < 0.1 µM; that for `O=C(N[C@H](c1cn2nc(CC3C[C@@H](C(F)(F)F)CNC3=O)ccc2n1)[C@@H]1CCCC(F)(F)C1)c1conc1C1CC1` (stereo partly drawn) [Compound 147, 3-cyclopropyl-N-((1S)—((R)-3,3-difluorocyclohexyl)(6-(((5R)-2-oxo-5-(trifluoromethyl)piperidin-3-yl)methyl)imidazo[1,2-b]pyridazin-2-yl)methyl)isoxazole-4-carboxamide], 0.1 to 1 µM; that for `CC(C)n1nccc1C(=O)N[C@H](c1cn2nc(CC3C[C@@H](C(F)(F)F)CNC3=O)ccc2n1)[C@H]1CCCC(F)(F)C1` (stereo partly drawn) [Compound 148, N-((1S)—((S)-3,3-difluorocyclohexyl)(6-(((5R)-2-oxo-5-(trifluoromethyl)piperidin-3-yl)methyl)imidazo[1,2-b]pyridazin-2-yl)methyl)-1-isopropyl-1H-pyrazole-5-carboxamide], < 0.1 µM.
As to `CC(C)n1nccc1C(=O)N[C@H](c1cn2nc(CC3C[C@@H](C(F)(F)F)CNC3=O)ccc2n1)[C@@H]1CCCC(F)(F)C1` (stereo partly drawn) [Compound 149, N-((1S)—((R)-3,3-difluorocyclohexyl)(6-(((5R)-2-oxo-5-(trifluoromethyl)piperidin-3-yl)methyl)imidazo[1,2-b]pyridazin-2-yl)methyl)-1-isopropyl-1H-pyrazole-5-carboxamide], the IC50 was < 0.1 µM.
In the case of `CC(C)c1nonc1C(=O)N[C@H](c1cn2nc(CC3C[C@@H](C(F)(F)F)CNC3=O)ccc2n1)[C@H]1CCCC(F)(F)C1` (stereo partly drawn) [Compound 150, N-((1S)—((S)-3,3-difluorocyclohexyl)(6-(((5R)-2-oxo-5-(trifluoromethyl)piperidin-3-yl)methyl)imidazo[1,2-b]pyridazin-2-yl)methyl)-4-isopropyl-1,2,5-oxadiazole-3-carboxamide], the IC50 was < 0.1 µM.
